How the values were obtained:
[1] = molecular target: T1, human IKKβ (Homo sapiens, UniProt O14920); assay: Molecular assay IKKb: phosphorylation of IκBα substrate by IKKβ; assay type: biochemical
T1 construct: FLAG (N)
T1 sequence (O14920 1-756): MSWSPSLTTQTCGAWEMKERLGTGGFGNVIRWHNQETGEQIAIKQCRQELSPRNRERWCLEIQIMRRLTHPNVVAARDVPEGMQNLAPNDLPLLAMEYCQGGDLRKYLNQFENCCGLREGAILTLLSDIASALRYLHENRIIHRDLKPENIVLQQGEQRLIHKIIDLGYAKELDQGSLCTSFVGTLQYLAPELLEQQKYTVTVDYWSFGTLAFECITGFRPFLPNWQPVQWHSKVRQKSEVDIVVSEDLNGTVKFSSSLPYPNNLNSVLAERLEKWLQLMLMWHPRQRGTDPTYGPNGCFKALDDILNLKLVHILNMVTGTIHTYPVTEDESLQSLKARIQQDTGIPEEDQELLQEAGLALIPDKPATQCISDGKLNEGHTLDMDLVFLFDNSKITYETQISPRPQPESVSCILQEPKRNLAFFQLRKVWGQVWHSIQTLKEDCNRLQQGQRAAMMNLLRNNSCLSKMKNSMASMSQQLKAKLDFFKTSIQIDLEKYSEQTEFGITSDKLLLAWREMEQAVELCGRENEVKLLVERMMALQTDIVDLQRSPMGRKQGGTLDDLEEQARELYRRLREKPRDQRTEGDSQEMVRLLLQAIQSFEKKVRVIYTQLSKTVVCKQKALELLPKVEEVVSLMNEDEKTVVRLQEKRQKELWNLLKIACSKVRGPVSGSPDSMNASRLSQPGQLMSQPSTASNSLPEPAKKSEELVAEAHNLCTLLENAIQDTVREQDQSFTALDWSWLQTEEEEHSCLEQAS
Method: The inhibition of IKKα and IKKβ by the compounds of the present invention can be determined with the following assay that measures the phosphorylation of the IκBα substrate by the respective kinases. The enzymes used in the assay were N-terminally flag-tagged versions of the human IKKβ or IKKα and the substrate was a GST fusion protein with IκBα (amino acids 1-54).
The reaction mixtures (60 μl) contained 20 mM HEPES pH 7.5, 10 mM MgCl2, 2 mM MnCl2, 100 mM NaCl, 100 μM Na3VO4, 20 mM β-glycerophosphate, 1 mM DTT, 2% DMSO, 250 nM ATP, 0.4 nM [^33P]ATP (specific activity, 3000 Ci/mmol), IκBα substrate, IKK enzyme and test compound. The reaction mixtures contained either 3.6 μg/ml IKKα and 245 μg/ml IκBα or 0.9 μg/ml IKKβ and 53 μg/ml IκBα.
Reactions were initiated by adding a solution of IκBα substrate and ATP to polypropylene plates containing IKK enzyme that was pre-incubated for 5 minutes with test compound. Then the reaction mixtures were incubated for 1 hour at 25° C., placed on ice and quenched by the addition of 150 μl 10% trichloroacetic acid and 5% disodium pyrophosphate. After mixing, the entire contents of the quenched reaction mixtures were transferred to a pre-wetted Packard UniFilter filtration plate, aspirated and washed 6 times with 250 μl of ddH2O using the Packard Filtermate Harvester. Filtration plates were then air dried, supplemented with 40 μl of Microscint 20 scintillation fluid and the ^33P-labeled reaction products were quantified using the Packard TopCount scintillation counter.
Compounds were tested in three-fold serial dilutions and inhibitor concentrations to achieve 50% inhibition of enzyme activity (i.e., IC50) were derived from dose-response curves using SAS software (SAS Institute, Cary N.C.). A non-linear regression analysis based on the Hill equation was applied to the percent inhibition versus concentration data. In all cases, compound concentrations were verified by HPLC.

[2] = tested on: ICAM-1 Expression on HeLa Cells; assay: Cell assay HeLa: ELISA of TNFα-stimulated ICAM-1 expression on HeLa cells; assay type: cell-based; conditions: for IC50: Homo sapiens, HeLa cells, TNFα stimulation, ICAM-1 expression; for cellular potency relative to the —CF3 group of compound 101: comparison in words, Table II
Method: HeLa cells are seeded on 96 well tissue culture treated plates (Costar) in complete medium comprised of 10% decomplemented fetal bovine serum in RPMI1640 with gentamycin and L-glutamine and grown overnight to confluence. The following day, the media is changed and the wells are treated with test compounds. 10 mM DMSO stock solutions of compounds are serially diluted with 0.1% DMSO (final concentration)-screening media to 5 final concentrations (starting at 10 μM). Compounds are pre-incubated with cells for 30 min followed by stimulation with TNFα (R&D Systems) for 5-6 hr. The adherent cells are then assayed for expression of intercellular adhesion molecule-1 (ICAM-1). Monolayers are washed three times with D-PBS (Gibco) and fixed for 10 min at room temperature with 1% paraformaldehyde (Polysciences, Inc) diluted in D-PBS. After washing to remove fixative, the monolayers are blocked with 2% BSA-D-PBS overnight at 4° C. 100 μL of anti-ICAM-1 mAB RR1-HRP (diluted 1:5000 in 2% BSA-DPBS; Zymed custom conjugate of BIPI mAB) is added for 1 hr at 37° C. Wells are washed three times with D-PBS. 100 μL of ABTS substrate diluted in substrate buffer (Zymed) is added to each well. Optical absorbance is measured at 405 nm in a Thermomax microplate reader ([…]). Data is plotted as percent of control and IC50s are determined using xlfit 4 model # 201.

[3] = tested on: established type II collagen arthritis in rats; assay: Rat CIA model (7 day rat established type II collagen arthritis); assay type: in vivo
Source text: Effects of Compounds in 7 Day Rat Established Type II Collagen Arthritis
Purpose: To determine the dose responsive efficacy of compounds administered by oral gavage dosing bid in inhibiting the inflammation, cartilage destruction and bone resorption of established type II collagen arthritis in rats. The terminal pharmacokinetic component is included.
Animals: 36 (Order 42) Female Lewis rats (Harlan, 1173000), weighing 125-150 g on arrival. Extras are used because animals with arthritis are selected and there is not 100% incidence of disease in this model in the short time frame for enrollment (inject 42 with collagen to get […] solid responders on days 10, 11 for 4 groups of 8. Four rats are used to serve as normal controls.
Materials: Agents or drugs in vehicle (Cremaphor), Type II collagen, Freund's incomplete adjuvant.
General Study Design: Animals (8/group for arthritis, 4/group for normal control), housed 4/cage, are acclimated for 4-8 days.
Acclimated animals are anesthetized with Isoflurane and given collagen injections (day 0). […]
Statistical analysis of body/paw weights and paw AUC and histopathology parameters are evaluated using a one-way analysis of variance (ANOVA). […]
Percent inhibition of paw weight and AUC is calculated using the following formula: % Inhibition=A−B/A×100 A=Mean Disease Control−Mean Normal B=Mean Treated−Mean Normal

[4] = Rat oral exposure (plasma exposure upon oral administration); assay type: in vivo; conditions: for concentration at 2 h / concentration at 6 h / concentration at 10 h: plasma, rat, oral, 10 mg/kg; for concentration at 2 h: read-out: Rat oral exposure (μM) @ 10 mg/kg dose 2h; for concentration at 6 h: read-out: Rat oral exposure (μM) @ 10 mg/kg dose 6h; for concentration at 10 h: read-out: Rat oral exposure (μM) @ 10 mg/kg dose 10h

Row | SMILES | IC50 [1] [nM] | IC50 [2] [nM] | cellular potency relative to the —CF3 group of compound 101 [2] | oral activity in a rat model of collagen induced arthritis ([3]; comparison in words, Table III) | Inhibition of paw weight increase ([3]; rat CIA, oral, 10 mg/kg BID) [%] | level of sustained plasma exposure upon oral administration to rat, versus Compound 100 ([4]; comparison in words, Table II) | concentration at 2 h [4] [µM] | concentration at 6 h [4] [µM] | concentration at 10 h [4] [µM]
1 | CCC(F)(F)c1cc(N2CCC(S(C)(=O)=O)CC2)nc2sc(C(N)=O)c(N)c12 [Compound 115, 3-Amino-4-(1,1-difluoro-propyl)-6-(4-methanesulfonyl-piperidin-1-yl)-thieno[2,3-b]pyridine-2-carboxylic acid amide] | 26 | 700 | improved cellular potency | superior oral activity | 44 | improved level of sustained plasma exposure | 1.59 | 0.78 | 0.65
2 | CCCc1cc(N2CCC(S(C)(=O)=O)CC2)nc2sc(C(N)=O)c(N)c12 [Compound 100, reference compound] | 78 | 720 | improved cellular potency | – | – | – | 0.21 | 0.12 | 0.08
3 | CS(=O)(=O)C1CCN(c2cc(C(F)(F)F)c3c(N)c(C(N)=O)sc3n2)CC1 [Compound 101] | 120 | 3200 | – | – | – | – | – | – | –

Reference: patent US7592353B2, “Substituted 3-amino-thieno[2,3-b]pyridine-2-carboxylic acid amide compounds and processes for preparing and their uses” (Boehringer Ingelheim International GmbH, priority 2006, dated 2009)
